System: Rhipicephalus sanguineus nymphs
Experiment: Activity in vivo against Rhipicephalus sanguineus nymphs on Mongolian gerbils (spray application)
Conditions: Dose 100 mg/kg, tick number reduction vs placebo (Abbot's formula), 7 days after infestation
Protocol: 3. Activity In Vivo Against Rhipicephalus sanguineus Nymphs on Mongolian Gerbils (Meriones unguiculatus) (Spray Application) On day 0, gerbils are treated with the test compound at a given dose by spray application. On day +1, the animals are infested with nymphs of R. sangineus. Ticks are left on the animals until full repletion. Seven days after infestation nymphs dropped off fully engorged are collected and counted. Efficacy in killing is expressed as a tick number reduction in comparison with a placebo treated group using the Abbot's formula.

SMILES | Efficacy (%)
FC(F)(F)C1(c2cc(Cl)cc(Cl)c2)CC(c2ccc(-n3cncn3)c3ccccc23)=NO1 (stereo not drawn) [Compound 1.1, 1-{4-[5-(3,5-dichloro-phenyl)-5-trifluoromethyl-4,5-dihydro-isoxazol-3-yl]-naphthalen-1-yl}-1H-[1,2,4]triazole] | 85%
FC(F)(F)C1(c2cc(Cl)cc(Cl)c2)CC(c2ccc(-c3cn(Cc4ccccn4)nn3)c3ccccc23)=NO1 (stereo not drawn) [Compound 1.27, 2-(4-{4-[5-(3,5-dichloro-phenyl)-5-trifluoromethyl-4,5-dihydro-isoxazol-3-yl]-naphthalen-1-yl}-[1,2,3]triazol-1-ylmethyl)-pyridine] | 79%
O=C(NCc1cn(-c2ccc(C3=NOC(c4cc(Cl)cc(Cl)c4)(C(F)(F)F)C3)c3ccccc23)nn1)c1ccncc1 (stereo not drawn) [Compound 1.61, N-(1-{4-[5-(3,5-dichloro-phenyl)-5-trifluoromethyl-4,5-dihydro-isoxazol-3-yl]-naphthalen-1-yl}-1H-[1,2,3]triazol-4-ylmethyl)-isonicotinamide] | 96%
